This note sets out measurements from article PMC8145535, “New Acyl Derivatives of 3-Aminofurazanes and Their Antiplasmodial Activities” (Pharmaceuticals, 2021).

A word on the IC50: it is the concentration at which inhibition is half-maximal. Usually melting point stands for the temperature of the solid-liquid transition.

The nature of one data set: in vitro. The conditions noted are these: rat. As to the method:
Serial drug dilutions of 11 3-fold dilution steps covering a range from 100 to 0.002 μg/mL were prepared. After 70 h of incubation, the plates were inspected under an inverted microscope to assure the growth of the controls and sterile conditions. […] Then, the plates were read with a Spectramax Gemini XS microplate fluorometer (Molecular Devices Cooperation, Sunnyvale, CA, USA) using an excitation wavelength of 536 nm and an emission wavelength of 588 nm. […] Podophyllotoxin (Sigma P4405) was used as control.

The next data set relates to P. falciparum K1. In words: In vitro 3H-hypoxanthine incorporation assay, erythrocytic stages, K1 strain. The conditions noted are these: Plasmodium falciparum. The format is cell-based. As to the method: (§1) Chloroquine (Sigma C6628) was used as standard. […] Serial drug dilutions of 11 3-fold dilution steps covering a range from 100 to 0.002 μg/mL were prepared. The 96-well plates were incubated in a humidified atmosphere at 37 °C; 4% CO2, 3% O2, 93% N2. […] The plates were incubated for a further 24 h under the same conditions. The plates were then harvested with a Betaplate cell harvester (Wallac, Zurich, Switzerland). The red blood cells were transferred onto a glass fiber filter and washed with distilled water. The dried filters were inserted into a plastic foil with 10 mL of scintillation fluid and counted in a Betaplate liquid scintillation counter (Wallac, Zurich, Switzerland).

In a further data set the test system is P. falciparum NF54. Kind of data set: In vitro 3H-hypoxanthine incorporation assay, erythrocytic stages, NF54 strain. The format is cell-based, Plasmodium falciparum. The conditions noted are these: average of four determinations, read-out: P.f. NF54 IC50. The procedure: as §1
Data set [1] can be described thus: Parallel artificial membrane permeability assay (PAMPA). In kind it is in vitro ADME. The conditions noted are these: pH 7.4, 200 µM in PBS, room temperature; for Papp at 5 h, 200 µM: pH 7.4, PAMPA, read-out: Pe (effective permeability). As to the method: The PAMPA was performed using a 96-well precoated Corning Gentest PAMPA plate at a pH of 7.4. The PAMPA plate system consists of a donor plate and an acceptor plate. When both plates are coupled, each well is divided into two chambers that are separated by a lipid–oil–lipid trilayer constructed in a porous filter. Stock solutions (10 mM) of each compound were prepared in DMSO and then further diluted to a concentration of 200 µM in phosphate-buffered saline (PBS) at pH 7.4. The compound dissolved in PBS was then added to the donor plate and pure PBS was added to the acceptor plate. Four replicates of each compound and negative control (PBS) were transferred into different wells of the donor plate. Both plates were coupled and left at room temperature for 5 h. Then, the plates were separated, and the solutions of each donor well and acceptor well were transferred to 96-well UV-Star Microplates (Greiner Bio-One). The UV absorbance of compounds in donor wells and acceptor wells were analyzed by a SpectraMax M3 UV plate reader (Molecular Devices). The concentrations were received from a calibration curve for each substance. The plates were analyzed at a wavelength where the R^2 value of the calibration curve was higher than 0.99 [34]. The effective permeability (Pe) was calculated as shown in the following Equations (1)–(3):(1) Penm/s=10^7∗−ln1−cAt/cequ/S∗1/VD+1/VA∗ t where:
cequ—equilibrium concentration. (2) cequ=cDt ∗VD+cAt ∗VA/VD+VA where:
Recovery of compounds from donor and acceptor wells (mass retention) was calculated as shown in the equation below. Data were only accepted when recovery exceeded 70%.

The mark [2] stands for this setting: K1, strain resistant to chloroquine and pyrimethamine, average of four determinations, read-out: P.f. K1 IC50.
Setting [3] is: Plasmodium falciparum, NF54, chloroquine-sensitive strain.

Read-outs that look alike come from different tables or passages of the source.

In turn, `C[C@@H]1CC[C@H]2[C@@H](C)C(=O)O[C@@H]3O[C@@]4(C)CC[C@@H]1[C@]32OO4` [ART, artemisinin, reference compound] displayed an IC50 at 72 h in the data set “in vitro” of 450 µM. In the data set with P. falciparum K1 (setting [2]), the IC50 came to 0.0064 µM.

Molecule `CCN(CC)CCCC(C)Nc1ccnc2cc(Cl)ccc12` (stereo not drawn) [CQ, chloroquine, reference compound] registered an IC50 at 72 h in the data set “in vitro” of 188 µM. Also, in the data set on P. falciparum K1 (K1, read-out: P.f. K1 IC50), the IC50 stood at 0.15 µM.

`CCOc1ccc(-c2nonc2NC(=O)c2ccccc2)cc1OCC` [Compound 10, N-(4-(3,4-Diethoxyphenyl)-1,2,5-oxadiazol-3-yl)benzamide] registered a melting point of 199 °C. Further, in the data set “in vitro”, it took 111 µM to reach half-maximal inhibition (IC50 at 72 h). The IC50 in the data set on P. falciparum K1 (setting [2]) was determined as 0.091 µM. Also, in the data set on P. falciparum NF54 (setting [3]), the IC50 is 0.076 µM.

Molecule `CCOc1ccc(-c2nonc2NC(=O)c2ccccc2C)cc1OCC` [Compound 11, N-(4-(3,4-Diethoxyphenyl)-1,2,5-oxadiazol-3-yl)-2-methylbenzamide] yielded an IC50 at 72 h in “in vitro” of 14.9 µM. The values for the IC50 with P. falciparum NF54 (setting [3]) and in the data set with P. falciparum NF54 (chloroquine-sensitive strain) were 0.343 to 0.831 µM and 0.343 µM, respectively.

For the molecule `CCOc1ccc(-c2nonc2NC(=O)c2ccccc2C(F)(F)F)cc1OCC` [Compound 12, N-(4-(3,4-Diethoxyphenyl)-1,2,5-oxadiazol-3-yl)-2-(trifluoromethyl)benzamide], half-maximal inhibition in the data set “in vitro” (IC50 at 72 h) was put at 14.2 µM.

`CCOc1ccc(-c2nonc2NC(=O)c2cccc(C(F)(F)F)c2)cc1OCC` [Compound 13, N-(4-(3,4-Diethoxyphenyl)-1,2,5-oxadiazol-3-yl)-3-(trifluoromethyl)benzamide]: the melting point was 153 °C. The molecule further returned an IC50 at 72 h in “in vitro” of 9.97 µM. Moreover, the Papp at 5 h, 200 µM in data set [1] was found to be 4.26 ×10⁻⁶ cm/s. The IC50 in the data set with P. falciparum K1 (setting [2]) was found to be 0.007 µM. The 50% inhibitory concentration (IC50) with P. falciparum NF54 (setting [3]) worked out at 0.019 µM.

In turn, `CCOc1ccc(-c2nonc2NC(=O)c2cccc(F)c2)cc1OCC` [Compound 14, N-(4-(3,4-Diethoxyphenyl)-1,2,5-oxadiazol-3-yl)-3-fluorobenzamide] came in with a melting point of 250 °C. The IC50 at 72 h in “in vitro” is 41.1 µM. Further, the IC50 in the data set with P. falciparum K1 (setting [2]) was 0.108 µM. For the same molecule, the IC50 with P. falciparum NF54 (setting [3]) amounted to 0.049 µM.

The molecule `CCOc1ccc(-c2nonc2NC(=O)c2cccc(OC(F)(F)F)c2)cc1OCC` [Compound 15, N-(4-(3,4-Diethoxyphenyl)-1,2,5-oxadiazol-3-yl)-3-(trifluoromethoxy)benzamide] came in with an IC50 at 72 h in “in vitro” of 14 µM. For the same molecule, the IC50 with P. falciparum NF54 (setting [3]) turned out to be 0.098 µM.

Turning to `CCOc1ccc(-c2nonc2NC(=O)c2ccc(OC)c(Cl)c2)cc1OCC` [Compound 16, 3-Chloro-N-(4-(3,4-diethoxyphenyl)-1,2,5-oxadiazol-3-yl)-4-methoxybenzamide], the melting point was 260 °C (dec.). The molecule further registered an IC50 at 72 h in “in vitro” of 20 µM. For the same molecule, the IC50 with P. falciparum NF54 (setting [3]) was 0.014 to 0.167 µM. Moreover, the IC50 in the data set with P. falciparum NF54 (chloroquine-sensitive strain) amounted to 0.014 µM.

Regarding `CCOc1ccc(-c2nonc2NC(=O)c2ccc(OC)c(F)c2)cc1OCC` [Compound 17, N-(4-(3,4-Diethoxyphenyl)-1,2,5-oxadiazol-3-yl)-3-fluoro-4-methoxybenzamide], the melting point was 232 °C (dec.). In “in vitro”, this molecule had an IC50 at 72 h of 35 µM. Moreover, the Papp at 5 h, 200 µM in data set [1] is 3.9 ×10⁻⁶ cm/s.

In the case of `CCOc1ccc(-c2nonc2NC(=O)c2ccc(CN3CCCC3)cc2)cc1OCC` [Compound 26, N-(4-(3,4-Diethoxyphenyl)-1,2,5-oxadiazol-3-yl)-4-((pyrrolidin-1-yl)methyl)benzamide], the melting point is 251 °C (dec.). In the data set “in vitro”, it took 102 µM to reach half-maximal inhibition (IC50 at 72 h). The Papp at 5 h, 200 µM in data set [1] amounted to 8.13 ×10⁻⁶ cm/s. For the same molecule, the IC50 in the data set on P. falciparum K1 (setting [2]) amounted to 1.87 µM.

In the case of `CCOc1ccc(-c2nonc2NC(=O)c2ccc(CN3CCOCC3)cc2)cc1OCC` [Compound 27, N-(4-(3,4-Diethoxyphenyl)-1,2,5-oxadiazol-3-yl)-4-((morpholin-4-yl)methyl)benzamide], the melting point was 269 °C (dec.). In “in vitro”, half-maximal inhibition (IC50 at 72 h) was put at 116 µM. Also, in the data set on P. falciparum K1 (setting [2]), the IC50 turned out to be 0.586 µM. Moreover, the IC50 in the data set on P. falciparum NF54 (setting [3]) was in the range of 0.674 to 4.05 µM. Also, the IC50 in the data set with P. falciparum NF54 (chloroquine-sensitive strain) was 0.674 µM.

The molecule `CCOc1ccc(-c2nonc2NC(=O)c2cccc(CN3CCCC3)c2)cc1OCC` [Compound 28, N-(4-(3,4-Diethoxyphenyl)-1,2,5-oxadiazol-3-yl)-3-((pyrrolidin-1-yl)methyl)benzamide] had an IC50 at 72 h in “in vitro” of 77.2 µM. Further, the Papp at 5 h, 200 µM in data set [1] came out at 7.26 ×10⁻⁶ cm/s. In addition, the IC50 in the data set with P. falciparum NF54 (setting [3]) amounted to 0.192 µM.

Turning to `CCOc1ccc(-c2nonc2NC(=O)c2cccc(CN3CCOCC3)c2)cc1OCC` [Compound 29, N-(4-(3,4-Diethoxyphenyl)-1,2,5-oxadiazol-3-yl)-3-((morpholin-4-yl)methyl)benzamide], the melting point turned out to be 199 °C. In addition, 104 µM corresponded to half-maximal inhibition in the data set “in vitro” (IC50 at 72 h). In addition, the Papp at 5 h, 200 µM in data set [1] is 5.65 ×10⁻⁶ cm/s. Besides, the IC50 in the data set with P. falciparum NF54 (setting [3]) was 0.712 µM.

Regarding `CCOc1ccc(-c2nonc2NC(=O)CN2CCCC2)cc1OCC` [Compound 31, N-(4-(3,4-Diethoxyphenyl)-1,2,5-oxadiazol-3-yl)-2-(pyrrolidin-1-yl)acetamide], in the data set “in vitro”, the IC50 at 72 h is 242 µM. In data set [1], the “Pe (effective permeability)” value is 10.80 10^−6 cm/s and the Papp at 5 h, 200 µM was in the range of 10.2 to 10.8 ×10⁻⁶ cm/s. Moreover, the IC50 with P. falciparum K1 (setting [2]) stood at 5.02 µM. Also, the IC50 in the data set on P. falciparum NF54 (setting [3]) came out at 7.24 µM.

The molecule `CCOc1ccc(-c2nonc2NC(=O)CN2CCOCC2)cc1OCC` [Compound 32, N-(4-(3,4-Diethoxyphenyl)-1,2,5-oxadiazol-3-yl)-2-(morpholin-4-yl)acetamide] registered an IC50 at 72 h in “in vitro” of 266 µM. For the same molecule, the “Pe (effective permeability)” value in data set [1] was 10.25 10^−6 cm/s. Besides, the Papp at 5 h, 200 µM in data set [1] lay in the range of 10.2 to 10.8 ×10⁻⁶ cm/s. The figures for the IC50 with P. falciparum K1 (setting [2]) and in the data set on P. falciparum NF54 (setting [3]) were 19.5 µM and 24.2 µM, respectively.

On to `CCOc1ccc(-c2nonc2NC(=O)CCN2CCCC2)cc1OCC` [Compound 34, N-(4-(3,4-Diethoxyphenyl)-1,2,5-oxadiazol-3-yl)-3-(pyrrolidin-1-yl)propanamide], for which the IC50 at 72 h in the data set “in vitro” came to 140 µM. For the same molecule, the Papp at 5 h, 200 µM in data set [1] worked out at 6.93 ×10⁻⁶ cm/s. In addition, the IC50 with P. falciparum K1 (setting [2]) is 2.41 µM; in the data set on P. falciparum NF54 (setting [3]) it was 56 µM.

On to `CCOc1ccc(-c2nonc2NC(=O)CCN2CCOCC2)cc1OCC` [Compound 35, N-(4-(3,4-Diethoxyphenyl)-1,2,5-oxadiazol-3-yl)-3-(morpholin-4-yl)propanamide], for which 147 µM corresponded to half-maximal inhibition in “in vitro” (IC50 at 72 h). Moreover, in data set [1], the Papp at 5 h, 200 µM worked out at 6.08 ×10⁻⁶ cm/s. For the same molecule, the IC50 is 19 µM with P. falciparum K1 (setting [2]) and 30.2 µM with P. falciparum NF54 (setting [3]).

`Cc1cccc(C(=O)Nc2nonc2-c2ccccc2)c1` [Compound 39, 3-Methyl-N-(4-phenyl-1,2,5-oxadiazol-3-yl)benzamide]: in “in vitro”, the IC50 at 72 h came to 66 µM. Moreover, in data set [1], the Papp at 5 h, 200 µM amounted to 8.47 ×10⁻⁶ cm/s. Further, the results for the IC50 with P. falciparum K1 (setting [2]) and in the data set with P. falciparum NF54 (setting [3]) were 39.9 µM and 21.5 µM, respectively.

Molecule `COc1cc([C@@H]2c3cc4c(cc3[C@H](O)[C@H]3COC(=O)[C@H]23)OCO4)cc(OC)c1OC` [POD, podophyllotoxin, reference compound] displayed an IC50 at 72 h in “in vitro” of 0.012 µM.
